Reference: patent publication US20250367251A1, “SKELETON PROTECTION METHOD USING PEPTIDE” (Pell Bio-Med Technology Co., Ltd., priority 2024, published 2025)
Non-standard residues stand in square brackets, D forms with d. Residues, ends and D or L forms follow the SMILES beside them. pGlu = O=C1CC[C@@H](C(=O)O)N1

What was measured:
[1] = Preliminary safety profile in AIA mice (body weight changes, observation); conditions: for body weight changes: oral once daily, after 1- or 2-week treatment (Week 5 or Week 6), compared with Week 4 or vehicle group, P>0.05
Experimental: This animal study was carried out according to the adjuvant-induced arthritis (AIA) model designed by Academia Sinica, Taipei, Taiwan. Specifically, arthritis induction was performed according to the method described in Gauldie, S. D., McQueen, D. S., Clarke, C. […] In short, this animal study comprised thirty C57BL/6 mice purchased from National Laboratory Animal Center, Taiwan, which were 8 weeks old with a body weight of about 20 to 25 grams. By using a 30-gauge needle mounted on a 100 μl Hamilton syringe, said mice were respectively injected with 5 μg Complete Freund's Adjuvant (CFA) (F5881, Sigma, USA) in the right ankle joint once a week for consecutive 4 times, wherein the first injection was carried out at week 0 (day 0), and said mice were anesthetized and maintained with 2% isoflurane during the injection. The AIA model can induce long-term inflammation and swelling in unilateral anterior ankle joints in C57BL/6 mice, thereby simulating the clinical long-term chronic pain of patients with rheumatoid arthritis.
After CFA induction, said mice were weekly weighted and scored with rheumatoid arthritis score estimation (data not shown) according to Hsieh, W. S., et al. (2017). […] The mice were assigned to 5 groups: (1) vehicle group, (2) P1 group (provided with 1 mg/kg/day peptide of SEQ ID NO: 1), (3) P3 group (provided with 3 mg/kg/day peptide of SEQ ID NO: 1), (4) P10 group (provided with 10 mg/kg/day peptide of SEQ ID NO: 1), and (5) T group (provided with 12.4 mg/kg/day tofacitinib). Said animal grouping was based on the rheumatoid arthritis scores by a random sampling mode. The drug administration from Week 4 (Day 28) to Week 6 (Day 42) was as follows: said mice received once-daily oral dosing (gavage) of 5 μL/g of body weight (bw) of a solution comprising: (1) the peptide of SEQ ID NO: 1 (1 mg/kg bw, 3 mg/kg bw or 10 mg/kg bw, dissolved in water) in P1, P3 and P10 group, respectively, (2) tofacitinib (12.4 mg/kg bw, dissolved with 0.5% carboxymethylcellulose aqueous solution) in T group, and (3) water in vehicle group. Said mice were sacrificed on Day 45. […]

[2] = test system: adjuvant-induced arthritis (AIA) model in C57BL/6 mice; test: Adjuvant-induced arthritis (AIA) model, micro-CT of calcaneus bone (cortical surface, bone mineral density); assay type: in vivo
From the text: Scientific reports, 7(1), 8870. […] Said mice were sacrificed on Day 45.
Each mouse was anesthetized (2.5% isoflurane, 1.0 L/min air) and the anesthetic gas was maintained during the scanning. The mouse was subjected to lay on one side on the carbon fiber half-tube bed while kept anesthetized in the micro-CT scanner (Skyscan 1076), and the right hindpaw was positioned on a cylindrical shape styrofoam holder. The mouse's paw was immobilized at the scanning midline of the scanner to eliminate any undesirable movement of the paw.
Settings for the micro-CT scanner (SkyScan-1076; Bruker micro CT, Belgium) were as follows: isotropic voxel size: 9 μm, tube voltage: 49 kV, current: 167 μA, Al filter: 0.5 mm, and 180° scan with 0.6° rotation step […] with frame averaging of 3. Subsequently, micro CT projections were back projection-reconstructed using the NRecon software (NReconServer64 bit, Bruker, MicroCT, Belgium) and volume-rendered and visualized in 3D with the CTVox software (Bruker, MicroCT, Belgium). The images of calcaneus bone were segmented and analyzed using the CTAn software (Bruker, MicroCT, Belgium).
GraphPad Prism 9.3.1 (GraphPad Software, USA) was used for statistical analyses and graphing. Data are presented as mean±standard deviation. The level of statistical significance was set at 5% (P<0.05) for all analyses. Data analysis of the indexes derived from the μCT images of calcaneus bone of mice was carried out, for example, One-way RM ANOVA (One-way Repeated Measures Analysis of Variance) with Tukey's post hoc test was used for data analysis of bone mineral density.
The observation time window of μCT scanning was set before AIA induction (Week 0), at the end of induction (Week 4), and after 1 or 2 weeks' treatment (i.e., Week 5 and Week 6). According to FIG. 1A and FIG. 1B, obviously, the surface integrity of the calcaneus bone was disturbed at Week 4 (the end of induction and prior to treatment), manifested as unevenness of the cortical bone (dashed line circle, Week 4 vs Week 0).

SW982 synoviocytes = test: Cell viability test (CCK-8) of SW982 synoviocytes; assay type: cell-based
Experimental: Owing to the restricted lifespan of primary rheumatoid arthritis fibroblast-like synoviocytes (RA-FLS), the fibroblast-like synoviocytes (FLS) cell line SW982 synoviocytes (hereinafter referred to as SW982 cells) are well accepted as a useful in vitro model for studying the pathogenesis of RA. In short, SW982 cells were seeded in a 96-well plate at a cell density of 6,000 cells per well. After the cells were treated in the following groups, the effect of each treatment group on the viability of SW982 cells was tested by means of the cell proliferation detection kit (cell counting kit-8, CCK8; Elabscience, Catalog No: E-CK-A361) according to the manufacturer's manual. Said treatment groups were as follows: (1) Different concentrations of the peptide of SEQ ID NO: 1: SW982 cells were treated with the L15 culture medium containing 10^−6, 10^−7, 10^−8, 10^−9 μM of the peptide of SEQ ID NO: 1 for 24 hours; (2) IL-1β stimulation group: SW982 cells were stimulated with the culture medium containing 1 ng/mL IL-1β for 24 hours to simulate the inflammatory synoviocytes of rheumatoid arthritis; (3) Co-treatment group: SW982 cells were treated with culture medium containing 10^−9 μM of the peptide of SEQ ID NO: 1 and 1 ng/mL of IL-1β for 72 hours. The SW982 cells in said treatment groups were all cultured in a carbon dioxide-free environment. In addition, SW982 cells were simply cultured in L15 medium for 24 hours, as the control group. This test uses 2-(2-methoxy-4-nitrophenyl)-3-(4-nitrophenyl)-5-(2,4-disulfophenyl)-2H-tetrazolium sodium salt (WST-8) from CCK-8 kit to react with the dehydrogenase in viable cells, so that the color of all treatment groups containing WST-8 turned from pink to orange. By detecting the absorbance value at 450 nm, the activity of dehydrogenase was determined to calculate the number of viable cells.

SW982 cells = test: SW982 cell migration measurement (wound healing experiment); assay type: cell-based; conditions: 10^−7 to 10^−5 μM, 24 h
From the text: It is known that fibroblast-like synoviocytes secrete inflammatory cytokines, chemokines, and matrix metalloproteinases (MMPs) and induce cell migration and invasion to damage joints and cartilage. We next examined the effect of the peptide of SEQ ID NO: 1 on SW982 cell migration through a conventional wound healing experiment. Specifically, a Culture-Insert 2 Well (ibidi) in which two cell culture reservoirs were separated by a 500 μm wall was placed on a cell culture plate surface. Both reservoirs were filled with cells suspension containing L15 culture medium and 4×10^4 SW982 cells to allow cell growth in the designated areas. After appropriate cell attachment of all SW982 cells, the Culture-Insert 2 Well was removed to create a cell-free gap of approximately 500 μm. The cell monolayer was washed with PBS buffer to remove detached cells and debris. The SW982 cells were incubated with the peptide of SEQ ID NO: 1 (10^−5, 10^−6, 10^−7 μM) in L15 culture medium or with L15 culture medium only (as control group) for 24 h in a carbon dioxide-free environment. By using direct microscopic visualization, a reference point at the bottom was created in each field, and the image of the remaining cell-free area in the identical field shot immediately after 24 h-treatment of the peptide of SEQ ID NO: 1 was measured to analyze cell migration and wound healing rates. […]

RAW264.7 cells = test: Bone resorption assay (RANKL-induced, CaP-coated plate pit area); assay type: cell-based; conditions: 100 μM with 100 ng/ml RANKL, 7 days, p<0.001 vs RANKL group
Experimental: This test used RANKL (receptor activator of nuclear factor kappa-B ligand) as an inducer of osteoclastic differentiation to detect whether the peptide of SEQ ID NO: 1 could inhibit osteoclast resorptive function induced by RANKL in vitro, and comprised three groups: control group, RANKL group and treatment group.
First, RAW264.7 cells were seeded in a calcium phosphate (CaP)-coated 96-well with a density of 2×10^3 cells per well. RAW264.7 is a macrophage cell line, and RAW264.7 cells can differentiate into an osteoclast. The cells of all groups were cultivated for 7 days according to the manufacturer's instructions of Bone Resorption assay kit (Cosmo Bio). The differences between control group, RANKL group and treatment group were as follows: • (1) Control group: neither RANKL nor the peptide of SEQ ID NO: 1 was provided to RAW264.7 cells during a 7-day incubation period. • (2) RANKL group: RANKL in a concentration of 100 ng/ml was provided to RAW264.7 cells at Day 1 and incubated for 7 days. • (3) Treatment group: RANKL in a concentration of 100 ng/ml and the peptide of SEQ ID NO: 1 in a concentration of 100 μM were simultaneously provided to RAW264.7 cells at Day 1 and incubated for 7 days.
After the 7-day incubation period, all wells of all groups were washed with 0.2 ml to 0.5 ml of 5% sodium hypochlorite to remove the cells adhered to the surface. […]

Compound | body weight changes [1] | bone mineral density (BMD) of calcaneus bone ([2]; 12.4 mg/kg/day oral, 1- or 2-week treatment, Week 5/6 vs Week 4, P>0.05) | bone contour / cortical surface of calcaneus bone (micro-CT) ([2]; 12.4 mg/kg/day oral, Week 6 vs Week 4) | observation of treated mice (signs of toxicity) ([1]; oral once daily Week 4 to Week 6) | IL-1β-induced proliferation of SW982 cells (SW982 synoviocytes; 10^−9 μM with 1 ng/mL IL-1β, 72 hours) | proliferation of SW982 cells (SW982 synoviocytes; 10^−9 to 10^−6 μM, 24 hours) | lateral migration of SW982 cells (SW982 cells) | bone contour / cortical surface of calcaneus bone (micro-CT) ([2]; 1 mg/kg oral once daily, Week 4 to Week 6) | bone mineral density (BMD) of calcaneus bone ([2]; 1 mg/kg oral, 1- or 2-week treatment, Week 5/6 vs Week 4, P>0.05) | bone contour / cortical surface of calcaneus bone (micro-CT) ([2]; 3 mg/kg oral once daily, Week 4 to Week 6) | bone mineral density (BMD) of calcaneus bone ([2]; 3 mg/kg oral, 1- or 2-week treatment, Week 5/6 vs Week 4, P>0.05) | bone contour / cortical surface of calcaneus bone (micro-CT) ([2]; 10 mg/kg oral once daily for 2 weeks, Week 6 vs Week 4) | bone mineral density (BMD) of calcaneus bone ([2]; 10 mg/kg oral, after 1-week treatment) | bone mineral density (BMD) of calcaneus bone ([2]; 10 mg/kg oral, after 2 week treatment, Week 6 vs Week 4, P<0.05) | pit area (calcium phosphate resorption) relative to RANKL group (one-fold) (RAW264.7 cells) | proliferation of SW982 cells (SW982 synoviocytes; 1 ng/mL, 24 h)
C[C@@H]1CCN(C(=O)CC#N)C[C@@H]1N(C)c1ncnc2[nH]ccc12 [Tofacitinib, reference compound] | no significant difference in body weight changes | neither 1- nor 2-week treatment of Tofacitinib was able to revert the BMD decrement | did not reduce the extent of surface roughness or the distortion of the bone contour | – | – | – | – | – | – | – | – | – | – | – | – | –
CC(C)[C@H](NC(=O)[C@H](C)NC(=O)[C@@H](NC(=O)[C@H](CCC(=O)O)NC(=O)[C@@H]1CCC(=O)N1)[C@@H](C)O)C(=O)N[C@@H](CO)C(=O)N[C@@H](CO)C(=O)N[C@@H](Cc1c[nH]cn1)C(=O)N[C@@H](CCC(=O)O)C(=O)N[C@@H](CCC(N)=O)C(=O)N[C@@H](CC(=O)O)C(=O)O [peptide of SEQ ID NO: 1, Glp Glu Thr Ala Val Ser Ser His Glu Gln Asp] ([pGlu]ETAVSSHEQD-OH) | no significant difference in body weight changes | – | – | no signs of irritability, loss of vigor, or any skin or hair changes | significantly suppress the IL-1β-induced proliferation of SW982 cells | effectively inhibit the proliferation of SW982 cells | significantly reduced the lateral migration of SW982 cells | no benefits in restoring the bone contour | no significant changes in BMD | no benefits in restoring the bone contour | no significant changes in BMD | much smoother cortical surfaces with fewer spiky projections of calcaneus bone | no increase in BMD | significant increases in BMD | about 0.5 fold | –
IL-1β: cytokine used to stimulate SW982 cells to simulate the inflammatory synoviocytes of rheumatoid arthritis [reference compound] | – | – | – | – | – | – | – | – | – | – | – | – | – | – | – | dramatically enhanced the proliferation of SW982 cells
